Reference: US7566786B2, “Quinoline derivatives as phosphodiesterase inhibitors” (Glaxo Group Limited, priority 2003, dated 2009)
Where a name gives a salt, the structure may show the parent alone.

Columns and labels:
[1] = target: PDE5 (human recombinant) (Homo sapiens, UniProt O76074); assay: Inhibition of PDE5 activity: Radioactive Scintillation Proximity Assay (SPA); format: biochemical; details: read-out: PDE5 mean pIC50 (converted)
Text: Human recombinant PDE5 is disclosed in K. Loughney et al., “Isolation and characterisation of cDNAs encoding PDE5A, a human cGMP-binding, cGMP-specific 3′,5′-cyclic nucleotide phosphodiesterase”, Gene, 1998, 216, 139-147.
(§1) 2. Inhibition of PDE3, PDE4B, PDE4D, PDE5 or PDE6 Activity: Radioactive Scintillation Proximity Assay (SPA)
(§2) The ability of compounds to inhibit catalytic activity at PDE4B or 4D (human recombinant), PDE3 (from bovine aorta), PDE5 (human recombinant) or PDE 6 (from bovine retina) was determined by Scintillation Proximity Assay (SPA) in 96-well format. Test compounds (preferably as a solution in DMSO, e.g. 2 microlitre (μl) volume) were preincubated at ambient temperature in Wallac Isoplates (code 1450-514) with PDE enzyme in 50 mM Tris-HCl buffer pH 7.5, 8.3 mM MgCl2, 1.7 mM EGTA, 0.05% (w/v) bovine serum albumin for 10-30 minutes. The enzyme concentration was adjusted so that no more than 20% hydrolysis of the substrate occurred in control wells without compound, during the incubation. For the PDE3, PDE4B and PDE4D assays [5′,8-^3H]adenosine 3′,5′-cyclic phosphate (Amersham Pharmacia Biotech, code TRK.559 or Amersham Biosciences UK Ltd, Pollards Wood, Chalfont St Giles, Buckinghamshire HP8 4SP, UK) was added to give 0.05 μCi per well and ˜10 nM final concentration. For the PDE5 and PDE6 assays [8-^3H]guanosine 3′,5′-cyclic phosphate (Amersham Pharmacia Biotech , code TRK.392) was added to give 0.05 μCi per well and ˜36 nM final concentration. Plates e.g. containing approx. 100 μl volume of assay mixture were mixed on an orbital shaker for 5 minutes and incubated at ambient temperature for 1 hour. Phosphodiesterase SPA beads (Amersham Pharmacia Biotech, code RPNQ 0150) suspended in buffer were added (˜1 mg per well) to terminate the assay. Plates were sealed and shaken and allowed to stand at ambient temperature for 35 minutes to 1 hour to allow the beads to settle. Bound radioactive product was measured using a WALLAC TRILUX 1450 Microbeta scintillation counter. […] Curves were analysed using
(§3) ActivityBase and XLfit (ID Business Solutions Limited, 2 Ocean Court, Surrey Research Park, Guildford, Surrey GU2 7QB, United Kingdom). Results were expressed as pIC50 values.

[2] = target: T1, PDE4B (human recombinant) (Homo sapiens, UniProt Q07343); assay: Inhibition of PDE4B activity: Radioactive Scintillation Proximity Assay (SPA); format: biochemical; details: SPA or FP format not given; for IC50: read-out: PDE4B mean pIC50 (converted)
T1 construct: made in house
T1 sequence (Q07343 1-564 isoform Q07343-2): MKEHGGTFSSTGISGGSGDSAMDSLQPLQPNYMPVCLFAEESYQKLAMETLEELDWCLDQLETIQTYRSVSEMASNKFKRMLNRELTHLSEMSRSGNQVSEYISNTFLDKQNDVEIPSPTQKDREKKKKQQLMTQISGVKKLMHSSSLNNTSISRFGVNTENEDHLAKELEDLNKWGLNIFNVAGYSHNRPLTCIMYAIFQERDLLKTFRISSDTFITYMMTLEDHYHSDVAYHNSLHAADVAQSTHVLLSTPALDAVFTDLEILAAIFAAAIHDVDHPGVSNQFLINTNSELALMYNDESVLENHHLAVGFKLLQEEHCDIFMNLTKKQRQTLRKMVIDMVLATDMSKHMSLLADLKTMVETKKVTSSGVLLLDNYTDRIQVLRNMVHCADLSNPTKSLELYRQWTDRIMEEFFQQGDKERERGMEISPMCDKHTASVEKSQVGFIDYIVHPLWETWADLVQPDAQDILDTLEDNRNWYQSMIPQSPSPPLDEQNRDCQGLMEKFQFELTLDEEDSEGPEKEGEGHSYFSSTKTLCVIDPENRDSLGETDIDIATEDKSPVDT
Text: Human recombinant PDE4B, in particular the 2B splice variant thereof (HSPDE4B2B), is disclosed in WO 94/20079 and also in M. M. McLaughlin et al., “A low Km, rolipram-sensitive, cAMP-specific phosphodiesterase from human brain: cloning and expression of cDNA, biochemical characterisation of recombinant protein, and tissue distribution of mRNA”, J. Biol. Chem., 1993, 268, 6470-6476. For example, in Example 1 of WO 94/20079, human recombinant PDE4B is described as being expressed in the PDE-deficient yeast Saccharomyces cerevisiae strain GL62, e.g. after induction by addition of 150 μM CuSO4, and 100,000×g supernatant fractions of yeast cell lysates are described for use in the harvesting of PDE4B enzyme.
as §1, §2, §3

IC50 [1] [nM]	IC50 [2] [nM]	PDE4B mean pIC50 [2]	Compound
> 12600	0.0794	–	Cc1cc(S(C)(=O)=O)cc2c(Nc3ccc4cnn(C)c4c3)c(C(N)=O)cnc12 [Example 309, 8-methyl-4-[(1-methyl-1H-indazol-6-yl)amino]-6-(methylsulfonyl)-3-quinolinecarboxamide]
> 31600	–	9.4	Cc1cc(S(C)(=O)=O)cc2c(Nc3cccc(C#N)c3)c(C(N)=O)cnc12 [Example 312, 4-[(3-cyanophenyl)amino]-8-methyl-6-(methylsulfonyl)-3-quinolinecarboxamide]
> 31600	20	–	CN(C)c1cccc(Nc2c(C(N)=O)cnc3ccc(S(=O)(=O)C4CCCC4)cc23)c1 [Example 92]
> 31600	0.00501	–	Cc1cc(S(=O)(=O)C2CCN(C(=O)c3ccco3)CC2)cc2c(Nc3cccc4c3CCO4)c(C(N)=O)cnc12 [Example 446, 4-(2,3-dihydro-1-benzofuran-4-ylamino)-6-{[1-(2-furanylcarbonyl)-4-piperidinyl]sulfonyl}-8-methyl-3-quinolinecarboxamide]
> 25100	0.0316	–	Cc1cc(S(C)(=O)=O)cc2c(Nc3cccc4c3CCO4)c(C(N)=O)cnc12 [Example 307, 4-(2,3-dihydro-1-benzofuran-4-ylamino)-8-methyl-6-(methylsulfonyl)-3-quinolinecarboxamide]
> 100	0.00398	–	COc1cccc(Nc2c(C(N)=O)cnc3c(C)cc(S(=O)(=O)c4ccc(OC)c(OC)c4)cc23)c1 [Example 380, 6-{[3,4-bis(methyloxy)phenyl]sulfonyl}-8-methyl-4-{[3-(methyloxy)phenyl]amino}-3-quinolinecarboxamide]
20000	0.02	–	COc1cccc(Nc2c(C(N)=O)cnc3c(C)cc(S(=O)(=O)c4cncc(C(=O)N(C)C)c4)cc23)c1 [Example 546, 6-({5-[(dimethylamino)carbonyl]-3-pyridinyl}sulfonyl)-8-methyl-4-{[3-(methyloxy)phenyl]amino}3-quinolinecarboxamide hydrochloride]
6310	0.00501	–	COc1ccc(S(=O)(=O)c2cc(C)c3ncc(C(N)=O)c(Nc4cccc(OC)c4)c3c2)cc1 [Example 265, 8-methyl-4-{[3-(methyloxy)phenyl]amino}-6-{[4-(methyloxy)phenyl]sulfonyl}-3-quinolinecarboxamide]
> 10000	1.26	–	Cc1cc(S(C)(=O)=O)cc2c(Nc3cc(F)cc(F)c3)c(C(N)=O)cnc12 [Example 502, 4-[(3,5-difluorophenyl)amino]-8-methyl-6-(methylsulfonyl)-3-quinolinecarboxamide]
> 3160	0.01	–	Cc1cc(S(=O)(=O)CCNS(C)(=O)=O)cc2c(Nc3cccc4c3CCO4)c(C(N)=O)cnc12 [Example 457, 4-(2,3-dihydro-1-benzofuran-4-ylamino)-8-methyl-6-({2-[(methylsulfonyl)amino]ethyl}sulfonyl)-3-quinolinecarboxamide]
> 10000	0.01	–	COc1cccc(Nc2c(C(N)=O)cnc3ccc(S(=O)(=O)c4cccc(C(=O)N(C)C)c4)cc23)c1 [Example 400, 6-({3-[(dimethylamino)carbonyl]phenyl}sulfonyl)-4-{[3-(methyloxy)phenyl]amino}-3-quinolinecarboxamide]
–	0.00398	–	Cc1cc(S(=O)(=O)c2cccc(C(=O)N(C)C)c2)cc2c(Nc3cccc(C#N)c3)c(C(N)=O)cnc12 [Example 408, 4-[(3-cyanophenyl)amino]-6-({3-[(dimethylamino)carbonyl]phenyl}sulfonyl)-8-methyl-3-quinolinecarboxamide]
7940	0.316	–	Cc1cccc(Nc2c(C(N)=O)cnc3c(Cl)cc(S(C)(=O)=O)cc23)c1 [Example 369, 8-chloro-4-[(3-methylphenyl)amino]-6-(methylsulfonyl)-3-quinolinecarboxamide]
15800	–	–	COc1cccc(Nc2c(C(N)=O)cnc3ccc(S(C)(=O)=O)cc23)c1 [Example 27, 4-{[3-(methyloxy)phenyl]amino}-6-(methylsulfonyl)-3-quinolinecarboxamide]

Compound	IC50 [1] [nM]	IC50 [2] [nM]	PDE4B mean pIC50 [2]
COc1cccc(Nc2c(C(N)=O)cnc3c(C)cc(S(=O)(=O)c4cccc(C(=O)N(C)C)c4)cc23)c1 [Example 399, 6-({3-[(dimethylamino)carbonyl]phenyl}sulfonyl)-8-methyl-4-{[3-(methyloxy)phenyl]amino}-3-quinolinecarboxamide]	2510	< 0.00251	–
